A short description of data set [1]: Propylene polymerization with supported metallocene/MAO/SiO2 catalyst. Particulars: metallocene 0.047 mmol in 30% MAO/toluene (Al/Zr=215) on SiO2; liquid propylene, 60° C., one hour. On the procedure:
35.1 mg (0.047 mmol) of (3) were stirred in 2.1 ml of 30% strength MAO solution in toluene (Al/Zr=215) for 60 minutes at room temperature. 2 g of SiO2 (Grace XPO2107, pretreated at 140° C., 10 mbar, 10 hours) were subsequently added and the mixture was stirred for another 10 minutes. The solvent was removed in an oil pump vacuum.
A dry 2 l reactor was flushed firstly with nitrogen and subsequently propylene and charged with 1.5 l of liquid propylene. 2 ml of TEA (20% strength in Varsol) were added and the mixture was stirred for 15 minutes. The catalyst system prepared above (0.886 g) was then resuspended in 20 ml of heptane and injected into reactor and rinsed in using 15 ml of heptane. The reaction mixture was heated to the polymerization temperature of 60° C. and polymerization was carried out for one hour. The polymerization was stopped by venting the remaining propylene. The polymer was dried in a vacuum drying oven. This gave 470 g of polypropylene powder. […] The catalyst activity was 0.53 kg of PP/g of catalyst x h.
27.1 mg (0.047 mmol) of dimethylsilanediylbis(2-methyl-4,5-benzoindenyl)zirconium dichloride were stirred in 2.1 ml of 30% strength MAO solution in toluene (Al/Zr=215) for 60 minutes at room temperature. 2 g of SiO2 (Grace XPO2107, pretreated at 140° C., 10 mbar, 10 hours) were subsequently added and the mixture was stirred for another 10 minutes. […]

Data set [2] is described as follows: Solubility comparison in toluene at room temperature. It counts as physicochemical. Particulars: 50 mg in toluene at room temperature.

Bounds are passed on as bounds.

The values that follow come from patent publication US6620953B1, “Method for producing monoaryloxy-ansa-metallocenes” (Bassell Polyolefine GmbH, priority 1998, dated 2003).

Turning to `CC1=Cc2c(ccc3ccccc23)[C]12[Si](C)(C)[C]1(C(C)=Cc3c1ccc1ccccc31)[Zr]2([Cl])[O]c1ccc(C(C)(C)C)cc1C(C)(C)C` (stereo not drawn) [compound 3, Pseudo-rac-Dimethylsilanediylbis(2-methyl-4,5-benzo-indenyl)zirconium Monochloride Mono(2,4-di-tert-butylphenoxide)], the catalyst activity in data set [1] was 0.53 kg of PP/g of catalyst x h. Moreover, in data set [2], the solubility was over 13 mM. For `Cc1cc2ccccc2[c-]1[Si](C)(C)[c-]1c(C)cc2ccccc21.[Cl-].[Cl-].[Zr+4]` (racemic) [Rac-Dimethylsilanediylbis(2-methylindenyl)-zirconium Dichloride], in data set [2], the solubility entry was “about 2.1 mmol/l”.

In data set [2], `CC1=Cc2ccccc2[C]12[Si](C)(C)[C]1(C(C)=Cc3ccccc31)[Zr]2([Cl])[O]c1ccc(C(C)(C)C)cc1C(C)(C)C` (stereo not drawn) [compound 4, Pseudo-rac-Dimethylsilanediylbis(2-methylindenyl)-zirconium Monochloride Mono(2,4-di-tert-butylphenoxide)] gave a solubility of over 15 mM.

For the compound `CC1=Cc2c(ccc3ccccc23)[C]12[Si](C)(C)[C]1(C(C)=Cc3c1ccc1ccccc31)[Zr]2([Cl])[Cl]` (stereo not drawn) [Rac-Dimethylsilanediylbis(2-methyl-4,5-benzoindenyl)zirconium Dichloride], the catalyst activity in data set [1] is 0.46 kg of PP/g of catalyst x h. Further, the solubility entry in data set [2] is given as “about 0.36 mmol/l”.

In general, solubility refers to the concentration that dissolves in the medium under given conditions.
